For assay [1], the target named is p210 BCR-ABL (wild type) (Homo sapiens, UniProt P00519). The assay can be described thus: Western blot of phospho-c-ABL. The assay is classed as cell-based.
Assay [2] deals with p210 BCR-ABL T315I (p210^T315I) (Homo sapiens, UniProt P00519, T315I). The assay can be described thus: Western blot of phospho-c-ABL. The assay is classed as cell-based. On the technique in general: A western blot detects proteins with antibodies after separation by electrophoresis.

For the molecule `Cc1cnc(Nc2ccc(N3CCN(C)CC3)cc2)nc1Nc1cccc(S(=O)(=O)NC(C)(C)C)c1` [TG101209], the IC50 (as a rule, the midpoint of a concentration-inhibition curve) in assay [1] was determined as 2.5 µM; in assay [2], 17.5 µM.

Source of the values: article PMC5065108 (Molecular cancer therapeutics, 2016).
